Source: patent US20170049739A1, “PROSTACYCLIN COMPOUNDS, COMPOSITIONS AND METHODS OF USE THEREOF” (INSMED INCORPORATED, priority 2013, published 2017)

Legend:
[1] = Treprostinil alkyl ester conversion to treprostinil in rat lung tissue homogenate; type: in vitro ADME; conditions: 37° C., 200 nM, 10 mg/mL of protein, 4 hours
Experimental: (§1) Treprostinil alkyl ester conversion to treprostinil was also measured in the presence of rat, dog and monkey lung tissue homogenate at 37° C. Mere, data were calculated based on fit of exponential increase to the maximum (experiments performed in duplicate). The results of this study are provided below in Table 2A and FIG. 37. […] Both FIG. 37 experiments (left and right graphs) were performed in duplicate and the lines represent nonlinear exponential regression assuming 1 phase decay.

[2] = Treprostinil alkyl ester conversion to treprostinil in dog lung tissue homogenate; type: in vitro ADME; conditions: 37° C., 200 nM, 10 mg/mL of protein, 4 hours
Experimental: as §1

[3] = Treprostinil alkyl ester conversion to treprostinil in monkey lung tissue homogenate; type: in vitro ADME; conditions: 37° C., 200 nM, 10 mg/mL of protein, 4 hours
Experimental: as §1

CHO-K1 cells = assay: CHO-K1 cell proliferation assay; conditions: unformulated alkyl esters, 0.195 μM-25 μM, 48 hour incubation
Experimental: CHG-K1 cells were harvested when the cell monolayer was 50-90% confluent (use passage 4-11). Media was aspirated out of the flask, and cells were rinsed with 2 mL of F12 media. Next, 1 mL of pre-warmed (37° C.) 0.25%o trypsin-EDTA (Life Technologies, Cat#: 25300054) was added, and cells were dislodged from the flask by tapping it on the side. Complete growth media (F12 (Life Technologies, Cat #: 31765092) +10%FBS (Hyclone, Cat #: SH30071.03)+1× Pen-Strep (Life Technologies, cat #15140-122) was then added at a volume of 10 mL. Cells were eentrifuged at 250×g for 5 minutes at room temperature, and the media was aspirated. The cell pellet was resuspended in 10 ml. complete growth media. Cell number was determined using a hemacytometer. Ceils were then seeded at 2000 cells per well of a 96-well plate in 100 μL of complete growth media. The plate was incubated overnight at 37° C. and 5% CO2 in a water-jacketed incubator.
The next day, 80 μL of fresh complete media was added to each well, and CHO—K1 cells were challenged with treprostinil compound and composition treatments. The working solutions were prepared at 10× concentration, and following 2 fold serial dilutions, 20 μL aliquots were added per well to arrive at a final 1× concentration. Following a 48 hour incubation at 37° C. and 5% CO2 in a water-jacketed incubator, the inhibitory effect on cell proliferation was determined. Plates were analyzed using 20 μL of Presto Blue reagent (Life Technologies, cat #: A13262) per well. The reagent was mixed, and plates were incubated for 1 hour at 37° C. and 5% CO2 in a water-jacketed incubator. Plates were read using either a CytoFluor Series 4000 (PerSeptive BioSystems) or Synergy Neo microplate reader (BioTek) with emission λ: 590 nm and excitation λ: 560 nm.
Following a 48 hour incubation period, the inhibitory effect of the treprostinil derivative compositions on cell proliferation was determined.
CHO—K1 cells were challenged with treprostinil alkyl esters, i.e., TR compounds of Formula (A), having the following R2 groups: • C2, C3, C4, C5, C6, C8, C10 or C12 straight chain alkyl, at dosages ranging from 0.098 μM to 25 μM, Following a 48 hour incubation period, the inhibitory effect on cell proliferation was determined.
Following a 72 hour incubation period, the inhibitory effect on cell proliferation was determined. Following a 48 hour incubation period, the inhibitory effect on cell proliferation was determined.
Similarly, CHG-K1 cells were challenged with the treprostinil compositions T612 (R2═C2), T613 (R2═C8) at concentrations ranging from 1.41 μM to 180 μM.

NR8383 cells = assay: NR8383 cell proliferation assay; type: cell-based, rat; conditions: unformulated alkyl esters, 0.195 μM-25 μM, 72 hour incubation
Experimental: Rat alveolar NR8383 cells were harvested when the monolayer was 50-90% confluent (use passage 5-11). Because the NR8383 cells include both adherent and non-adherent cells, media was transferred to a 50 mL Falcon tube. To obtain the cells remaining in the flask, 2 mL of plain media was added, and the remaining cells were scraped out of the 75 cm^2 flask with a cell scraper and added to the 50 mL tube. […] SH30071.03) […] Technologies, cat #: 15410-122)). Cell number was determined using a hemacytometer. […] Measurements and calculations were made as described above for the CHO-K1 cells.

## CCCCCCCCCCCCOC(=O)COc1cccc2c1C[C@H]1C[C@@H](O)[C@H](CC[C@@H](O)CCCCC)[C@H]1C2 [C12-TR, dodecyl-treprostinil]
[1]
  Rate of treprostinil alkyl ester conversion: 1.1 nmOL/h * g of protein
[2]
  Rate of treprostinil alkyl ester conversion: 2.2 nmOL/h * g of protein
[3]
  Rate of treprostinil alkyl ester conversion: 0.6 nmOL/h * g of protein
CHO-K1 cells
  Effect on cell proliferation: concentration with detectable inhibition: No detectable cell inhibition
NR8383 cells
  Effect on cell proliferation: No detectable cell inhibition
